We go through 19 molecules from patent publication US20260327191A1, “GSK3a INHIBITORS AND METHODS OF USE THEREOF” (Blueprint Medicines Corporation, priority 2023, published 2026).

Assay [1] addresses T1, GSK3A (Homo sapiens, UniProt P49840).
T1 construct: expressed in transfected cells
The assay can be described thus: NanoBRET cellular target engagement assay, Nanoluc-GSK3A in HEK293 cells. Type of assay: cell-based. The note with it: NanoBRET GSK3α IC50, HEK293 cells, tracer K-8, 2 hours, 37° C. For orientation: BRET reads energy transfer from a luciferase to a nearby fluorophore.

Assay [2] addresses T2, GSK3B (Homo sapiens, UniProt P49841). Description: NanoBRET cellular target engagement assay, Nanoluc-GSK3B in HEK293 cells. Type of assay: cell-based. Also on record: expressed in transfected cells. The note with it: NanoBRET GSK3β IC50, HEK293 cells, tracer K-8, 2 hours, 37° C.
For assay [3], the target named is T3, human GSK3α (Homo sapiens, UniProt P49840).
T3 construct: Full length human GSK3α or GSK3B expressed as N-terminal GST fusion proteins; GST (N); purchased Carna Biosciences (Japan); host or cells: baculovirus host
The assay can be described thus: In vitro enzymatic activity assay, GSK3α. Type of assay: biochemical. To be noted: 1.0 mM ATP, 1.0 μM peptide substrate, 120 min, 25° C, read-out: Enzyme GSK3α (IC50).

The target in assay [4] is T2, GSK3B. Description: In vitro enzymatic activity assay, GSK3β. Type of assay: biochemical. Set-up: Full length human GSK3α or GSK3B expressed as N-terminal GST fusion proteins; GST (N); purchased Carna Biosciences (Japan); host or cells: baculovirus host. The note with it: 1.0 mM ATP, 1.0 μM peptide substrate, 120 min, 25° C, read-out: Enzyme GSK3β (IC50).

T1 sequence (P49840 whole entry): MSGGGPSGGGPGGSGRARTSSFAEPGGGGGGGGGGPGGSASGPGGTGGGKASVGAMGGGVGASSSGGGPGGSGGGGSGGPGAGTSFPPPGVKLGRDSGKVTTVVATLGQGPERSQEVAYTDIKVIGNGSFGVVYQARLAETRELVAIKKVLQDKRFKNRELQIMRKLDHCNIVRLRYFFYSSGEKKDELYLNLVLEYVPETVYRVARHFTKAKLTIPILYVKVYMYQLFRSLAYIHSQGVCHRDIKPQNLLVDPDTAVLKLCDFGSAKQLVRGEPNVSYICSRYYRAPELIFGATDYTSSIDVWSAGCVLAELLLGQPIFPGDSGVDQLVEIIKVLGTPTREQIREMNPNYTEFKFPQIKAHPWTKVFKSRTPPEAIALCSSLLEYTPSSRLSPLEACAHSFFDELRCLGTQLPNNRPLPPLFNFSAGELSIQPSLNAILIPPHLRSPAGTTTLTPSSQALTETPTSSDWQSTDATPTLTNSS
T3 sequence (P49840 whole entry, the tested form may be a part): as the sequence (P49840 whole entry) above
T2 sequence (P49841 whole entry): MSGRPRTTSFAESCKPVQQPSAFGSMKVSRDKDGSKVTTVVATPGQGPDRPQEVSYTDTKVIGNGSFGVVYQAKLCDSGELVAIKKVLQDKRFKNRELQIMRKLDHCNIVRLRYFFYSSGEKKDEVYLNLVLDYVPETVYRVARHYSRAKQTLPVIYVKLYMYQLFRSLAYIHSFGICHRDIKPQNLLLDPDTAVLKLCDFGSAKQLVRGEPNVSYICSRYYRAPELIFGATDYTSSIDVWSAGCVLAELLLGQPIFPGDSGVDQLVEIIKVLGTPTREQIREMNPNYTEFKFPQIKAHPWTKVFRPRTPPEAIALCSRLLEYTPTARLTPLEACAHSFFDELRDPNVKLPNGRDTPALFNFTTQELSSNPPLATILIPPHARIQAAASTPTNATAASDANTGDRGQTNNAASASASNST

One may read the IC50 as the concentration that gives 50% inhibition. Turning to `Cc1cc(C(F)(F)F)cc(C)c1-n1cnc(N)c(C(=O)Nc2cncc(C3CCCCCN3)c2)c1=O` (single isomer, unassigned) [Example 89, (R)-4-amino-N-(5-(azepan-2-yl)pyridin-3-yl)-1-(2,6-dimethyl-4-(trifluoromethyl)phenyl)-6-oxo-1,6-dihydropyrimidine-5-carboxamide or (S)-4-amino-N-(5-(azepan-2-yl)pyridin-3-yl)-1-(2,6-dimethyl-4-(trifluoromethyl)phenyl)-6-oxo-1,6-dihydropyrimidine-5-carboxamide], the half-maximal inhibitory concentration (IC50) came to 6.4 nM in assay [1], 485 nM in assay [2], 10.2 nM in assay [3] and 669 nM in assay [4].
With `Cc1cc(C(F)(F)F)cc(C)c1-n1cnc(N)c(C(=O)Nc2cncc(C3CCCC(C)N3)c2)c1=O` (single isomer, unassigned) [Example 90], the IC50 in assay [1] amounted to 6.5 nM; in assay [2] it was 700 nM; in assay [3] it was 15.6 nM; in assay [4] it was 1070 nM.
For `CCOc1cc(C)c(-n2cnc(N)c(C(=O)Nc3cncc(C4CCC(C)N4)c3)c2=O)c(C)c1` (single isomer, unassigned) [Example 92] the same measures were 6.8 nM, 584 nM, 16.4 nM and 1030 nM.
On to `CCOc1cc(C)c(-n2cnc(N)c(C(=O)Nc3cncc(C4CCC(C)N4)c3)c2=O)c(C)c1` (single isomer, unassigned) [Example 93], for which the half-maximal inhibitory concentration (IC50) in assay [1] was determined as 9.3 nM; in assay [2], 914 nM; in assay [3], 31.7 nM; in assay [4], 1950 nM.
Regarding `CCOc1cc(C)c(-n2cnc(N)c(C(=O)Nc3cncc(C4CCCCCN4)c3)c2=O)c(C)c1` (single isomer, unassigned) [Example 95, (R)-4-amino-N-(5-(azepan-2-yl)pyridin-3-yl)-1-(4-ethoxy-2,6-dimethylphenyl)-6-oxo-1,6-dihydropyrimidine-5-carboxamide or (S)-4-amino-N-(5-(azepan-2-yl)pyridin-3-yl)-1-(4-ethoxy-2,6-dimethylphenyl)-6-oxo-1,6-dihydropyrimidine-5-carboxamide], the IC50 in assay [1] came to 4.3 nM; in assay [2], 290 nM; in assay [3], 9.8 nM; in assay [4], 465 nM.
As to `CCOc1cc(C)c(-n2cnc(N)c(C(=O)Nc3cncc(C4CCCC(C)N4)c3)c2=O)c(C)c1` (single isomer, unassigned) [Example 96], the half-maximal inhibitory concentration (IC50) came to 6.7 nM in assay [1], 640 nM in assay [2], 16.4 nM in assay [3] and 706 nM in assay [4].
Turning to `COCc1cc(C)c(-n2cnc(N)c(C(=O)Nc3cncc(C4CCCCCN4)c3)c2=O)c(C)c1` (single isomer, unassigned) [Example 100, (R)-4-amino-N-(5-(azepan-2-yl)pyridin-3-yl)-1-(4-(methoxymethyl)-2,6-dimethylphenyl)-6-oxo-1,6-dihydropyrimidine-5-carboxamide or (S)-4-amino-N-(5-(azepan-2-yl)pyridin-3-yl)-1-(4-(methoxymethyl)-2,6-dimethylphenyl)-6-oxo-1,6-dihydropyrimidine-5-carboxamide], the half-inhibitory concentration (IC50) in assay [1] came to 3.9 nM; in assay [2], 293 nM; in assay [3], 8.2 nM; in assay [4], 348 nM.
Taken in the same sequence, the figures for `COCc1cc(C)c(-n2cnc(N)c(C(=O)Nc3cncc(C4CCC(C)N4)c3)c2=O)c(C)c1` (single isomer, unassigned) [Example 101] were 7.8 nM, 800 nM, 19.6 nM and 941 nM.
As for `COCc1cc(C)c(-n2cnc(N)c(C(=O)Nc3cncc([C@H]4CCC[C@H](C)N4)c3)c2=O)c(C)c1` (single isomer, unassigned) [Example 102], the IC50 in assay [1] worked out at 5 nM; in assay [2], 584 nM; in assay [3], 16.5 nM; in assay [4], 684 nM.
In the case of `COCc1cc(C)c(-n2cnc(N)c(C(=O)Nc3cncc([C@H]4CC[C@H](C)N4)c3)c2=O)c(C)c1` (single isomer, unassigned) [Example 103], the concentration for half-maximal inhibition (IC50) in assay [1] was found to be 6.6 nM; in assay [2], 532 nM; in assay [3], 13.2 nM; in assay [4], 581 nM.
In the case of `CCOc1cc(C)c(-n2cnc(N)c(C(=O)Nc3cncc(C(C)N)c3)c2=O)c(C)c1` (single isomer, unassigned) [Example 104, (R)-4-amino-N-(5-(1-aminoethyl)pyridin-3-yl)-1-(4-ethoxy-2,6-dimethylphenyl)-6-oxo-1,6-dihydropyrimidine-5-carboxamide or (S)-4-amino-N-(5-(1-aminoethyl)pyridin-3-yl)-1-(4-ethoxy-2,6-dimethylphenyl)-6-oxo-1,6-dihydropyrimidine-5-carboxamide], the IC50 turned out to be 7.9 nM in assay [1], 521 nM in assay [2], 16.2 nM in assay [3] and 746 nM in assay [4].
Take `Cc1cc(C(F)F)cc(C)c1-n1cnc(N)c(C(=O)Nc2cncc(C3CCCC(C)N3)c2)c1=O` (single isomer, unassigned) [Example 107]: the concentration for half-maximal inhibition (IC50) in assay [1] is 3.9 nM; in assay [2], 434 nM; in assay [3], 10 nM; in assay [4], 671 nM.
For `Cc1cc(C(F)F)cc(C)c1-n1cnc(N)c(C(=O)Nc2cncc([C@H]3CCC[C@H](C)N3)c2)c1=O` (single isomer, unassigned) [Example 108] the same measures were 8.7 nM, 688 nM, 24.6 nM and 998 nM.
As to `Cc1cc(C(F)CF)cc(C)c1-n1cnc(N)c(C(=O)Nc2cncc(C3CCCCCN3)c2)c1=O` (single isomer, unassigned) [Example 112], the IC50 in assay [1] was determined as 5.1 nM; in assay [2] it was 349 nM; in assay [3] it was 10.5 nM; in assay [4] it was 493 nM.
For `Cc1cc(C(F)CF)cc(C)c1-n1cnc(N)c(C(=O)Nc2cncc([C@H]3CCCCN3)c2)c1=O` (single isomer, unassigned) [Example 113, 4-amino-1-(4-((R)-1,2-difluoroethyl)-2,6-dimethylphenyl)-6-oxo-N-(5-((R)-piperidin-2-yl)pyridin-3-yl)-1,6-dihydropyrimidine-5-carboxamide or 4-amino-1-(4-((S)-1,2-difluoroethyl)-2,6-dimethylphenyl)-6-oxo-N-(5-((R)-piperidin-2-yl)pyridin-3-yl)-1,6-dihydropyrimidine-5-carboxamide] the same measures were 1.7 nM, 107 nM, 3 nM and 133 nM.
Take `Cc1cc(C(F)CF)cc(C)c1-n1cnc(N)c(C(=O)Nc2cncc(C(C)N)c2)c1=O` (single isomer, unassigned) [Example 114]: the IC50 in assay [1] amounted to 4.4 nM; in assay [2], 252 nM; in assay [3], 12.1 nM; in assay [4], 507 nM.
As for `Cc1cc(C(F)CF)cc(C)c1-n1cnc(N)c(C(=O)Nc2cncc(C3CCCCCN3)c2)c1=O` (single isomer, unassigned) [Example 115], the IC50 turned out to be 4.7 nM in assay [1], 281 nM in assay [2], 7.6 nM in assay [3] and 362 nM in assay [4].
As for `CNCc1cncc(NC(=O)c2c(N)ncn(-c3c(Cl)cc(C(F)CF)cc3Cl)c2=O)c1` (single isomer, unassigned) [Example 116, (R)-4-amino-1-(2,6-dichloro-4-(1,2-difluoroethyl)phenyl)-N-(5-((methylamino)methyl)pyridin-3-yl)-6-oxo-1,6-dihydropyrimidine-5-carboxamide or (S)-4-amino-1-(2,6-dichloro-4-(1,2-difluoroethyl)phenyl)-N-(5-((methylamino)methyl)pyridin-3-yl)-6-oxo-1,6-dihydropyrimidine-5-carboxamide], the IC50 in assay [1] was 1.8 nM; in assay [2] it was 101 nM; in assay [3], 2.9 nM; in assay [4], 125 nM.
On to `CNCc1cncc(NC(=O)c2c(N)ncn(-c3c(Cl)cc(C(F)CF)cc3Cl)c2=O)c1` (single isomer, unassigned) [Example 117, (R)-4-amino-1-(2,6-dichloro-4-(1,2-difluoroethyl)phenyl)-N-(5-((methylamino)methyl)pyridin-3-yl)-6-oxo-1,6-dihydropyrimidine-5-carboxamide or (S)-4-amino-1-(2,6-dichloro-4-(1,2-difluoroethyl)phenyl)-N-(5-((methylamino)methyl)pyridin-3-yl)-6-oxo-1,6-dihydropyrimidine-5-carboxamide], for which the IC50 in assay [1] is 1.4 nM; in assay [2], 81.1 nM; in assay [3], 2.2 nM; in assay [4], 104 nM.
